Experimental data: patent US20020137929A1, “1 - (3-heterocyclylphenyl) isothiourea, -isourea, -guanidine and -amidine herbicidal agents” (Intellectual Property Department, BASF Aktiengesellschaft, priority 1998, published 2002)

Key:
ABUTH (Velvetleaf) [1] = experiment: Postemergence herbicidal evaluation; assay type: in vivo, Abutilon theophrasti
Method in brief: (§1)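 Seedlings grown about two weeks were sprayed at 40 psi with compound dispersed in 50/50 acetone/water plus 0.5% TWEEN 20, at about 0.0156 to 0.500 kg/ha. Plants were kept in the greenhouse and scored 4–5 weeks later on a 0–9 visual scale against untreated controls.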

[2] = system: IPOHE (Morningglory, Ivyleaf); experiment: Postemergence herbicidal evaluation; assay type: in vivo, Ipomoea hederacea
Method in brief: as §1

SETVI (Foxtail, Green) = experiment: Postemergence herbicidal evaluation; assay type: in vivo, Setaria viridis
Method in brief: as §1

[3] = system: GLXMAW (Soybean, Williams); experiment: Postemergence herbicidal evaluation; assay type: in vivo, Glycine max, (L.) Merr. cv Williams
Method in brief: as §1

ZEAMX (Corn, Field) = experiment: Postemergence herbicidal evaluation; assay type: in vivo, Zea mays
Method in brief: as §1

ABUTH (Velvetleaf) [4] = experiment: Preemergence herbicidal evaluation; assay type: in vivo, Abutilon theophrasti; settings: rated 4-5 weeks after treatment
Method in brief: (§2)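 Herbicidal effect scored visually, 0-9, at 4 to 5 weeks against a control; compound applied preemergence by aqueous acetone spray to seeded soil at about 0.0156 to 0.500 kg/ha.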

AMBEL (Ragweed, Common) = experiment: Preemergence herbicidal evaluation; assay type: in vivo, Ambrosia artemisifolia; settings: rated 4-5 weeks after treatment
Method in brief: as §2

CASOB (Sicklepod) = experiment: Preemergence herbicidal evaluation; assay type: in vivo, Cassia obtusifolia; settings: rated 4-5 weeks after treatment
Method in brief: as §2

[5] = system: IPOHE (Morningglory, Ivyleaf); experiment: Preemergence herbicidal evaluation; assay type: in vivo, Ipomoea hederacea; settings: rated 4-5 weeks after treatment
Method in brief: as §2

ECHCG (Barnyardgrass) = experiment: Preemergence herbicidal evaluation; assay type: in vivo, Echinochloa crus-galli; settings: rated 4-5 weeks after treatment
Method in brief: as §2

[6] = system: ECHORC (Watergrass (Calif.)); experiment: Preemergence weed control under flooded paddy conditions; assay type: in vivo, Echinochloa oryzoides; settings: rated 3-4 weeks after treatment
Method in brief: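 Visual injury scored 0-9 against control three to four weeks post-treatment, greenhouse-grown. Application: acetone/water (50/50) solutions dosed directly into flood water (1.5-3 cm over silt loam, planted top 0.5 cm), roughly 0.0313 to 0.500 kg/ha active ingredient.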

CYPSE (Flatsedge) = experiment: as above; assay type: in vivo, Cyperus serotinus; settings: rated 3-4 weeks after treatment
Method in brief: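 Values are visual 0-9 scores against a control for a preemergence application into paddy flood water at about 0.0313 to 0.500 kg/ha. Greenhouse duration was three to four weeks.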

[7] = system: ECHORC (Watergrass (Calif.)); experiment: Postemergence weed control under flooded paddy conditions; assay type: in vivo, Echinochloa oryzoides; settings: postemergence weeds, rated 3 to 4 weeks after treatment
Method in brief: (§3)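 Injury ratings (0–9 scale covering stand, vigor, malformation, size, chlorosis and overall appearance versus control) were made three to four weeks after treatment. Test material, about 0.0313 to 0.500 kg/ha a.i. in 50/50 v/v aqueous/acetone, was added to flood water 1.5 to 3 cm deep over 3 to 5 cm weeds and 1.5 to 2.5 leaf rice.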

CYPIR (Rice Flatsedge) = experiment: as above; assay type: in vivo, Cyperus iria; settings: postemergence weeds, rated 3 to 4 weeks after treatment
Method in brief: as §3

CN1C(=O)C(CC(=O)O)SC1=Nc1cc(-n2c(=O)cc(C(F)(F)F)n(C)c2=O)c(F)cc1Cl (centres unmarked) [Compound 63, 2-{{2-Chloro-5-[3,6-dihydro-3-methyl-2,6-dioxo-4-(trifluoromethyl)-1(2H)-pyrimidinyl]-4-fluoro-phenyl}imino}-3-methyl-4-oxo-5-thiazolidineacetic acid]
Postemergence herbicidal rating ABUTH (ABUTH (Velvetleaf) [1]; Rate 0.0158 kg/ha): 9.0
Postemergence herbicidal rating ABUTH (ABUTH (Velvetleaf) [1]; Rate 0.0315 kg/ha): 6.0
Postemergence herbicidal rating ABUTH (ABUTH (Velvetleaf) [1]; Rate 0.0630 kg/ha): 9.0
Postemergence herbicidal rating IPOHE ([2]; Rate 0.0158 kg/ha): 9.0
Postemergence herbicidal rating IPOHE ([2]; Rate 0.0315 kg/ha): 9.0
Postemergence herbicidal rating IPOHE ([2]; Rate 0.0630 kg/ha): 9.0
Postemergence herbicidal rating SETVI (SETVI (Foxtail, Green); Rate 0.0158 kg/ha): 9.0
Postemergence herbicidal rating SETVI (SETVI (Foxtail, Green); Rate 0.0315 kg/ha): 9.0
Postemergence herbicidal rating SETVI (SETVI (Foxtail, Green); Rate 0.0630 kg/ha): 9.0
Postemergence herbicidal rating GLXMAW ([3]; Rate 0.0158 kg/ha): 6.5
Postemergence herbicidal rating GLXMAW ([3]; Rate 0.0315 kg/ha): 8.5
Postemergence herbicidal rating GLXMAW ([3]; Rate 0.0630 kg/ha): 7.5
Postemergence herbicidal rating ZEAMX (ZEAMX (Corn, Field); Rate 0.0158 kg/ha): 7.0
Postemergence herbicidal rating ZEAMX (ZEAMX (Corn, Field); Rate 0.0315 kg/ha): 7.5
Postemergence herbicidal rating ZEAMX (ZEAMX (Corn, Field); Rate 0.0630 kg/ha): 7.5
Preemergence herbicidal rating ABUTH (ABUTH (Velvetleaf) [4]; rate 0.0156 kg/ha): 1.0
Preemergence herbicidal rating ABUTH (ABUTH (Velvetleaf) [4]; rate 0.0313 kg/ha): 6.0
Preemergence herbicidal rating ABUTH (ABUTH (Velvetleaf) [4]; rate 0.0625 kg/ha): 9.0
Preemergence herbicidal rating ABUTH (ABUTH (Velvetleaf) [4]; rate 0.1250 kg/ha): 9.0
Preemergence herbicidal rating ABUTH (ABUTH (Velvetleaf) [4]; rate 0.2500 kg/ha): 9.0
Preemergence herbicidal rating AMBEL (AMBEL (Ragweed, Common); rate 0.0156 kg/ha): 0.0
Preemergence herbicidal rating AMBEL (AMBEL (Ragweed, Common); rate 0.0313 kg/ha): 0.0
Preemergence herbicidal rating AMBEL (AMBEL (Ragweed, Common); rate 0.0625 kg/ha): 6.0
Preemergence herbicidal rating AMBEL (AMBEL (Ragweed, Common); rate 0.1250 kg/ha): 9.0
Preemergence herbicidal rating AMBEL (AMBEL (Ragweed, Common); rate 0.2500 kg/ha): 9.0
Preemergence herbicidal rating CASOB (CASOB (Sicklepod); rate 0.0156 kg/ha): 0.0
Preemergence herbicidal rating CASOB (CASOB (Sicklepod); rate 0.0313 kg/ha): 2.0
Preemergence herbicidal rating CASOB (CASOB (Sicklepod); rate 0.0625 kg/ha): 2.0
Preemergence herbicidal rating CASOB (CASOB (Sicklepod); rate 0.1250 kg/ha): 2.0
Preemergence herbicidal rating CASOB (CASOB (Sicklepod); rate 0.2500 kg/ha): 7.0
Preemergence herbicidal rating IPOHE ([5]; rate 0.0156 kg/ha): 0.0
Preemergence herbicidal rating IPOHE ([5]; rate 0.0313 kg/ha): 1.0
Preemergence herbicidal rating IPOHE ([5]; rate 0.0625 kg/ha): 6.0
Preemergence herbicidal rating IPOHE ([5]; rate 0.1250 kg/ha): 7.0
Preemergence herbicidal rating IPOHE ([5]; rate 0.2500 kg/ha): 9.0
Preemergence herbicidal rating ECHCG (ECHCG (Barnyardgrass); rate 0.0156 kg/ha): 0.0
Preemergence herbicidal rating ECHCG (ECHCG (Barnyardgrass); rate 0.0313 kg/ha): 0.0
Preemergence herbicidal rating ECHCG (ECHCG (Barnyardgrass); rate 0.0625 kg/ha): 1.0
Preemergence herbicidal rating ECHCG (ECHCG (Barnyardgrass); rate 0.1250 kg/ha): 4.0
Preemergence herbicidal rating ECHCG (ECHCG (Barnyardgrass); rate 0.2500 kg/ha): 9.0
ECHORC herbicidal effect rating ([6]; 0.0313 kg/ha): 0.0
ECHORC herbicidal effect rating ([6]; 0.0625 kg/ha): 0.0
ECHORC herbicidal effect rating ([6]; 0.1250 kg/ha): 5.0
ECHORC herbicidal effect rating ([6]; 0.2500 kg/ha): 5.0
CYPSE herbicidal effect rating (CYPSE (Flatsedge); 0.0313 kg/ha): 0.0
CYPSE herbicidal effect rating (CYPSE (Flatsedge); 0.0625 kg/ha): 0.0
CYPSE herbicidal effect rating (CYPSE (Flatsedge); 0.1250 kg/ha): 0.0
CYPSE herbicidal effect rating (CYPSE (Flatsedge); 0.2500 kg/ha): 0.0
Herbicidal rating ECHORC ([7]; Rate 0.0313 kg/ha): 0.0
Herbicidal rating ECHORC ([7]; Rate 0.0625 kg/ha): 0.0
Herbicidal rating ECHORC ([7]; Rate 0.1250 kg/ha): 5.0
Herbicidal rating ECHORC ([7]; Rate 0.2500 kg/ha): 5.0
Herbicidal rating CYPIR (CYPIR (Rice Flatsedge); Rate 0.0313 kg/ha): 2.0
Herbicidal rating CYPIR (CYPIR (Rice Flatsedge); Rate 0.0625 kg/ha): 6.0
Herbicidal rating CYPIR (CYPIR (Rice Flatsedge); Rate 0.1250 kg/ha): 7.0
Herbicidal rating CYPIR (CYPIR (Rice Flatsedge); Rate 0.2500 kg/ha): 7.0
